Assay results reported in patent publication US11834453B2, “Substituted pyrimido[5,4-d]pyrimidines as HER2 inhibitors” (Array BioPharma Inc., priority 2020, dated 2023).
Like-named read-outs stand apart in the source and are kept apart here.

Columns and labels:
[1] = target: ErbB2 insYVMA (HER2-YVMA, SEQ ID NO: 2) (Homo sapiens, UniProt P04626, INS775YVMA/P1170A); experiment: biochemical; settings: ErbB2 insYVMA enzyme assay
ErbB2 WT = ErbB2 WT (Homo sapiens (Human), UniProt P04626); experiment: ErbB enzyme assay (CisBio HTRF KinEASE-TK), Assay 2; assay type: biochemical
Method in brief: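 ErbB2 phosphorylates 250 nM biotin-TK substrate at 1 mM ATP in 25 mM HEPES pH 7.4, 10 mM MgCl2, 0.01% Triton X-100 and 2% DMSO, for 30 min at 22 °C. Product is detected by HTRF with Sa-XL665 and TK-Ab-Cryptate. Percent of control is set by DMSO-only wells and pre-quenched wells.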

EGFR = EGFR (Homo sapiens (Human), UniProt P00533); experiment: ErbB enzyme assay (CisBio HTRF KinEASE-TK), Assay 3; assay type: biochemical
Method in brief: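 HTRF KinEASE-TK assay: kinase with 250 nM biotinylated TK-substrate and 1 mM ATP in 25 mM HEPES pH 7.4, 10 mM MgCl2, 0.01% Triton X-100, 2% DMSO, 30 min at 22 °C. Quenched with Sa-XL665/TK-Ab-Cryptate, read after 1 h. IC50 from 4-parameter fit of percent of control.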

[2] = target: ErbB2 with Exon 20 YVMA insertion (HER2-YVMA) (Homo sapiens (Human), UniProt P04626, INS775YVMA); experiment: Cellular phosphorylation assay, constitutive ErbB2 phosphorylation (Y1196) in engineered NIH 3T3 cells, Assay 4; assay type: cell-based
Method in brief: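 Engineered NIH 3T3 cells expressing HER2-YVMA treated with compounds 1 h at 37 °C, then formaldehyde-fixed and methanol-permeabilized. pErbB2 Y1196 detected by in-cell infrared immunofluorescence, normalized to GAPDH. IC50 from the normalized curves.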

EGFR wild type (EGFR WT) = EGFR wild type (EGFR WT) (Homo sapiens (Human), UniProt P00533); experiment: Cellular phosphorylation assay, EGF-stimulated EGFR phosphorylation in engineered NIH 3T3 cells, Phospho-EGFR DuoSet IC ELISA, Assay 5; assay type: cell-based
Procedure: NIH 3T3 cells were engineered to express EGFR wild type (EGFR WT; Assay 5, no footnote) with constructs obtained from GenScript and grown in DMEM supplemented with 10% fetal bovine serum and 15 μg/ml blasticidin. Cells were plated in 96-well plates at 20,000 cells/well and allowed to attach overnight at 37° C./5% CO2. Serially diluted compounds were added to the plates for 1 hour at 37° C./5% CO2. EGFR WT cells were stimulated with 100 ng/ml rEGF for an additional 10 minutes at 37° C./5% CO2. After compound incubation, medium was removed from the cells, which were then lysed in 100 μL/well lysis buffer according to the manufacturer's protocol (R&D Systems, DYC1095, Human Phospho-EGFR DuoSet IC ELISA). Same protocol was followed to determine the total levels of phospho-EGFR by measuring the optical density of each well using a VersaMax microplate reader. Curves were then generated and IC50 values calculated.

Sequence of ErbB2 with Exon 20 YVMA insertion (HER2-YVMA) (P04626 other isoform, or with tags, fused parts or gaps ins YVMA behind 775): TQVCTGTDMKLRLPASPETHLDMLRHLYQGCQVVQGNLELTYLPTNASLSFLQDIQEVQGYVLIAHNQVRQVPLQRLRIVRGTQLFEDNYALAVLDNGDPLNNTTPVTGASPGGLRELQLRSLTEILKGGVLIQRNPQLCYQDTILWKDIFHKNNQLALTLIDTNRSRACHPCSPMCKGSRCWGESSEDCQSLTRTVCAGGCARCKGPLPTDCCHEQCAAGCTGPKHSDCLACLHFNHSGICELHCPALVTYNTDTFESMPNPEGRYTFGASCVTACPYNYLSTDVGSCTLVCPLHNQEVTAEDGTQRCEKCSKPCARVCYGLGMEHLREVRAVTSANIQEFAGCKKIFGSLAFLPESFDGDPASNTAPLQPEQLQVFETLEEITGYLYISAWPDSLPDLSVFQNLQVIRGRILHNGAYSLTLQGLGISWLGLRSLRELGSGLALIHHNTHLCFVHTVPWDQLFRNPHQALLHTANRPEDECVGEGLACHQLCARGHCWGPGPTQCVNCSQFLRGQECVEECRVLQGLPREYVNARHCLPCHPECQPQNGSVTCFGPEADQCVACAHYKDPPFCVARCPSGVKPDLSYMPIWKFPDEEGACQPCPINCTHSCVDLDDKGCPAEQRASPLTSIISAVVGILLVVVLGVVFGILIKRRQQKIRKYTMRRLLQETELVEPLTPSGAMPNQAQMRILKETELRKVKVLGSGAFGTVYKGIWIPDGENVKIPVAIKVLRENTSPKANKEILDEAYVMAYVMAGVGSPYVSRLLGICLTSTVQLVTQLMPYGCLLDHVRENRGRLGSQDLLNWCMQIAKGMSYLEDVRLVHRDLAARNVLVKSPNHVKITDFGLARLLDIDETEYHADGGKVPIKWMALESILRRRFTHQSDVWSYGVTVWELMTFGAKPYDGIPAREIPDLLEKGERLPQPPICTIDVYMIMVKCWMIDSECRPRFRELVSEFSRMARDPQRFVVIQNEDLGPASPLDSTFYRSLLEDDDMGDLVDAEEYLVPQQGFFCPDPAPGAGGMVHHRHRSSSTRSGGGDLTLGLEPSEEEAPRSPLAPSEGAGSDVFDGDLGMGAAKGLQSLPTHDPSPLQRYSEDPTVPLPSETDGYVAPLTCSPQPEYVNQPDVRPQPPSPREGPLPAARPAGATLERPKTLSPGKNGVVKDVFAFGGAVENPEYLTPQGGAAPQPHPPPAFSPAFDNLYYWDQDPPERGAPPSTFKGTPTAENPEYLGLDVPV
Sequence of ErbB2 insYVMA (HER2-YVMA, SEQ ID NO: 2) (P04626 with tags, fused parts or gaps INS775YVMA/P1170A limits assumed): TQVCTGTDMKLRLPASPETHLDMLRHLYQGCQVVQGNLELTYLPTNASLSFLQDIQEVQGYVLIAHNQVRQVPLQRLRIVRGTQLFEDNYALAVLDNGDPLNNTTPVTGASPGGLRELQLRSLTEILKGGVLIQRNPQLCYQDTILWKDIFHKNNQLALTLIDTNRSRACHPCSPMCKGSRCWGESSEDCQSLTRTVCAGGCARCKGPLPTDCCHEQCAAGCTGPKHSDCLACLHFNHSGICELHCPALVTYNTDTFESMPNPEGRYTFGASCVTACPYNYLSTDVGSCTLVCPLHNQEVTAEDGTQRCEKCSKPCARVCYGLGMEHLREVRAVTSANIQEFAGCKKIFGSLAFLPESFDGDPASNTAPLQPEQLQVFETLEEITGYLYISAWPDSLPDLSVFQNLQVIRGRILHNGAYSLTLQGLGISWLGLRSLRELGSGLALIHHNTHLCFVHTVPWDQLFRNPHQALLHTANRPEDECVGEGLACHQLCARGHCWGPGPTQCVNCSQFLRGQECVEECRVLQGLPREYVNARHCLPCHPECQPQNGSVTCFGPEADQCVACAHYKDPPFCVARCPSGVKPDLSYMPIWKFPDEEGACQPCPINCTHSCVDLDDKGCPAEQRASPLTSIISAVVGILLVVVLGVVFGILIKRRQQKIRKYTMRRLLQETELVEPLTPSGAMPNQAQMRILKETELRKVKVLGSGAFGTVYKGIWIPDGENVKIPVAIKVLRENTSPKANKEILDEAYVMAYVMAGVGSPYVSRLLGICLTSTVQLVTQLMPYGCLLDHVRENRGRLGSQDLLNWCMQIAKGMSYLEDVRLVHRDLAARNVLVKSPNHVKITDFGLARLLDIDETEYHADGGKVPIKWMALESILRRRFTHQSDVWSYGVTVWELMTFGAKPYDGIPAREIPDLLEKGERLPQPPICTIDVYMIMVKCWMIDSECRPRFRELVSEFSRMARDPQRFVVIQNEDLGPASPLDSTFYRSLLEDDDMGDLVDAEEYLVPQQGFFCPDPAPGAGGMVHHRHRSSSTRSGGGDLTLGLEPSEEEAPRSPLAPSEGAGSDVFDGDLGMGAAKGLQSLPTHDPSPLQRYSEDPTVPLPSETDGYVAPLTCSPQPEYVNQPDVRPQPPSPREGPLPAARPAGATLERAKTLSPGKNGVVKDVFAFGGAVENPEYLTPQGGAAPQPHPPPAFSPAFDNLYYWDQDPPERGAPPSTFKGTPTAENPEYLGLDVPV
Sequence of EGFR (P00533 25-1210): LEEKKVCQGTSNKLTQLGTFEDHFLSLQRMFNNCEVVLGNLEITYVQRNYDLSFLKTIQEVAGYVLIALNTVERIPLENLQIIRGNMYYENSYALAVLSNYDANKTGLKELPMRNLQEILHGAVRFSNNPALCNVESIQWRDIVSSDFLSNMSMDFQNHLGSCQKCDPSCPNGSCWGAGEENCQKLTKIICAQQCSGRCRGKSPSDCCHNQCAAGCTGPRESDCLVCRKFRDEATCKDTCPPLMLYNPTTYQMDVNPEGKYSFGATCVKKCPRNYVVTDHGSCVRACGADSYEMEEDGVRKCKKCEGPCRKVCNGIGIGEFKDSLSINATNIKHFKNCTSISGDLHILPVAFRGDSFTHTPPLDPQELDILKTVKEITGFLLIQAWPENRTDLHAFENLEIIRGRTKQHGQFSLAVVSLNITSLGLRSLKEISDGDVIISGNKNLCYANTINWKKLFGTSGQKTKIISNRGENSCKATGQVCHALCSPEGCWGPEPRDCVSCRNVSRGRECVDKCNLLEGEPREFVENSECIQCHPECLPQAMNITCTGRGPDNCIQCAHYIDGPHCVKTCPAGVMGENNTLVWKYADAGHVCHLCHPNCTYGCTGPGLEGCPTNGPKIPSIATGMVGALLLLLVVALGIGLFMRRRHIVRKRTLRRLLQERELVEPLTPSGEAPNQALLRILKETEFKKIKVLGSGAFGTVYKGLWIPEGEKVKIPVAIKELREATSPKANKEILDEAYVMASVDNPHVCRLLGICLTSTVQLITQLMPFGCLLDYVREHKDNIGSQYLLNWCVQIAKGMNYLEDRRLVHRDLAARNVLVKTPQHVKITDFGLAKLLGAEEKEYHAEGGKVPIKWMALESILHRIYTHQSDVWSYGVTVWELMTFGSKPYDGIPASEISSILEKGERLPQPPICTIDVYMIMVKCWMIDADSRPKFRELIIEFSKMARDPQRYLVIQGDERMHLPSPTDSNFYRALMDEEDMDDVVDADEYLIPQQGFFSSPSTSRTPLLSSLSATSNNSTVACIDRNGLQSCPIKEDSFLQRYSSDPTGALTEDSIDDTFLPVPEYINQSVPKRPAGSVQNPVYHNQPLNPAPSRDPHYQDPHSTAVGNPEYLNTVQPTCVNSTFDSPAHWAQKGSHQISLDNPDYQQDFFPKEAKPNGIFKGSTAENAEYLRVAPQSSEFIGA
Sequence of EGFR wild type (EGFR WT) (P00533 25-1210): as above

| Structure (SMILES) | IC50 ([1]; read-out: Assay 1 IC50) | IC50 (ErbB2 WT) | IC50 (EGFR) | IC50 [2] | IC50 (EGFR wild type (EGFR WT)) | IC50 ([1]; Assay 1 IC50 (nM)) |
| --- | --- | --- | --- | --- | --- | --- |
| Cc1cc(Nc2ncnc3cnc(N4CC5(COC5)C4)nc23)ccc1Oc1ccc2c(c1)ncn2C [Example 26, N-(3-methyl-4-((1-methyl-1H-benzo[d]imidazol-5-yl)oxy)phenyl)-6-(2-oxa-6-azaspiro[3.3]heptan-6-yl)pyrimido[5,4-d]pyrimidin-4-amine] | 85.6 nM | 507 nM | ≥ 10000 nM | 62.2 nM | ≥ 5000 nM |  |
| Cc1cc(Nc2ncnc3cnc(N4CCC45COC5)nc23)ccc1Oc1ccc2c(c1)ncn2C [Example 27, N-(3-methyl-4-((1-methyl-1H-benzo[d]imidazol-5-yl)oxy)phenyl)-6-(6-oxa-1-azaspiro[3.3]heptan-1-yl)pyrimido[5,4-d]pyrimidin-4-amine] | 20 nM | 50.8 nM | ≥ 10000 nM | 9.3 nM | ≥ 5000 nM |  |
| Cc1cc(Nc2ncnc3cnc(N4CCN(C)S4(=O)=O)nc23)ccc1Oc1ccc2c(c1)ncn2C [Example 29, 2-methyl-5-(8-((3-methyl-4-((1-methyl-1H-benzo[d]imidazol-5-yl)oxy)phenyl)amino)pyrimido[5,4-d]pyrimidin-2-yl)-1,2,5-thiadiazolidine 1,1-dioxide] | 37.8 nM | 65.9 nM | ≥ 10000 nM | 20.6 nM | ≥ 5000 nM |  |
| Cc1cc(Nc2ncnc3cnc(NC4CC(F)(F)C4)nc23)ccc1Oc1ccc2c(c1)ncn2C [Example 30, N2-(3,3-difluorocyclobutyl)-N8-(3-methyl-4-((1-methyl-1H-benzo[d]imidazol-5-yl)oxy)phenyl)pyrimido[5,4-d]pyrimidine-2,8-diamine] | 104 nM | 196 nM | ≥ 10000 nM | 165 nM | ≥ 5000 nM |  |
| Cc1cc(Nc2ncnc3cnc(N4CC(F)(F)C4)nc23)ccc1Oc1ccc2c(c1)ncn2C [Example 38, 6-(3,3-difluoroazetidin-1-yl)-N-(3-methyl-4-((1-methyl-1H-benzo[d]imidazol-5-yl)oxy)phenyl)pyrimido[5,4-d]pyrimidin-4-amine] | 183 nM | 403 nM | ≥ 10000 nM | 65.1 nM | ≥ 5000 nM |  |
| Cc1ncc(-c2ncc3ncnc(Nc4ccc(Oc5ccc6c(c5)ncn6C)c(C)c4)c3n2)s1 [Example 42, N-(3-methyl-4-((1-methyl-1H-benzo[d]imidazol-5-yl)oxy)phenyl)-6-(2-methylthiazol-5-yl)pyrimido[5,4-d]pyrimidin-4-amine] | 58.2 nM | 176 nM | ≥ 10000 nM | 16.8 nM | ≥ 5000 nM |  |
| Cc1cc(Nc2ncnc3cnc(N4CCC4)nc23)ccc1Oc1ccc2scnc2c1 [Example 44, 6-(azetidin-1-yl)-N-(4-(benzo[d]thiazol-5-yloxy)-3-methylphenyl)pyrimido[5,4-d]pyrimidin-4-amine 2,2,2-trifluoroacetate] | 103 nM | 315 nM | 3310 nM | 70.6 nM | ≥ 5000 nM |  |
| CCOc1ncc2ncnc(Nc3ccc(Oc4ccc5scnc5c4)c(C)c3)c2n1 [Example 46, N-(4-(benzo[d]thiazol-5-yloxy)-3-methylphenyl)-6-ethoxpyrimido[5,4-d]pyrimidin-4-amine 2,2,2-trifluoroacetate] | 95.2 nM | 760 nM | 4250 nM | 566 nM | ≥ 5000 nM |  |
| Cc1cc(Nc2ncnc3cnc(N4CCOC5(CC5)C4)nc23)ccc1Oc1ccc2c(c1)ncn2C [Example 58, N-(3-methyl-4-((1-methyl-1H-benzo[d]imidazol-5-yl)oxy)phenyl)-6-(4-oxa-7-azaspiro[2.5]octan-7-yl)pyrimido[5,4-d]pyrimidin-4-amine] | 62.5 nM | 123 nM | ≥ 10000 nM | 10.6 nM | ≥ 5000 nM |  |
| COC[C@@H](C)Nc1ncc2ncnc(Nc3ccc(Oc4ccc5c(c4)ncn5C)c(C)c3)c2n1 [Example 61, (R)—N2-(1-methoxypropan-2-yl)-N8-(3-methyl-4-((1-methyl-1H-benzo[d]imidazol-5-yl)oxy)phenyl)pyrimido[5,4-d]pyrimidine-2,8-diamine] | 36.9 nM | 107 nM | ≥ 10000 nM | 49.5 nM | ≥ 5000 nM |  |
| COC[C@H](C)Nc1ncc2ncnc(Nc3ccc(Oc4ccc5c(c4)ncn5C)c(C)c3)c2n1 [Example 62, (S)—N2-(1-methoxypropan-2-yl)-N8-(3-methyl-4-((1-methyl-1H-benzo[d]imidazol-5-yl)oxy)phenyl)pyrimido[5,4-d]pyrimidine-2,8-diamine] | 39.8 nM | 112 nM | ≥ 10000 nM | 27.1 nM | ≥ 5000 nM |  |
| Cc1c(Oc2ccc3c(c2)ncn3C)ccc(Nc2ncnc3cnc(N(C)C)nc23)c1F [Example 71, N8-(2-fluoro-3-methyl-4-((1-methyl-1H-benzo[d]imidazol-5-yl)oxy)phenyl)-N2,N2-dimethylpyrimido[5,4-d]pyrimidine-2,8-diamine 2,2,2-trifluoroacetate] |  | 299 nM | ≥ 10000 nM | 76.6 nM | ≥ 5000 nM | 70.2 nM |
| Cc1cc(Nc2ncnc3cnc(N4CCOCC4)nc23)ccc1Oc1ccc2c(c1)ncn2C1CC1 [Example 73, N-(4-((1-cyclopropyl-1H-benzo[d]imidazol-5-yl)oxy)-3-methylphenyl)-6-morpholinopyrimido[5,4-d]pyrimidin-4-amine 2,2,2-trifluoroacetate] |  | 163 nM | ≥ 10000 nM | 47.5 nM | ≥ 5000 nM | 78 nM |
| Cc1cc(Nc2ncnc3cnc(N4CCN(CC(F)(F)F)CC4)nc23)ccc1Oc1ccc2c(c1)ncn2C [Example 85, N-(3-methyl-4-((1-methyl-1H-benzo[d]imidazol-5-yl)oxy)phenyl)-6-(4-(2,2,2-trifluoroethyl)piperazin-1-yl)pyrimido[5,4-d]pyrimidin-4-amine] | 204 nM | 726 nM | ≥ 10000 nM | 130 nM | ≥ 5000 nM |  |
| Cc1cc(Nc2ncnc3cnc(O[C@@H]4CN(C)C[C@@H]4F)nc23)ccc1Oc1ccc2c(c1)ncn2C [Example 87, 6-(((3R,4S)-4-fluoro-1-methylpyrrolidin-3-yl)oxy)-N-(3-methyl-4-((1-methyl-1H-benzo[d]imidazol-5-yl)oxy)phenyl)pyrimido[5,4-d]pyrimidin-4-amine] | 69.5 nM | 346 nM | ≥ 10000 nM | 95.1 nM | ≥ 5000 nM |  |
| CC(=O)O[C@H]1CN(c2ncc3ncnc(Nc4ccc(Oc5ccc6c(c5)ncn6C)c(C)c4)c3n2)C[C@H]1F [Example 90, (3S,4R)-4-fluoro-1-(8-((3-methyl-4-((1-methyl-1H-benzo[d]imidazol-5-yl)oxy)phenyl)amino)pyrimido[5,4-d]pyrimidin-2-yl) pyrrolidin-3-yl acetate] | 41 nM | 93.1 nM | ≥ 10000 nM | 29 nM | ≥ 5000 nM |  |
| CON1CCN(c2ncc3ncnc(Nc4ccc(Oc5ccn6ncnc6c5)c(C)c4F)c3n2)CC1 [Example 95, N-(4-([1,2,4]triazolo[1,5-a]pyridin-7-yloxy)-2-fluoro-3-methylphenyl)-6-(4-methoxypiperazin-1-yl)pyrimido[5,4-d]pyrimidin-4-amine] | 25.2 nM | 95.1 nM | ≥ 10000 nM | 179 nM | ≥ 5000 nM |  |
| CON1CCN(c2ncc3ncnc(Nc4ccc(Oc5ccn6ncnc6c5)c(C)c4)c3n2)CC1 [Example 96, N-(4-([1,2,4]triazolo[1,5-a]pyridin-7-yloxy)-3-methylphenyl)-6-(4-methoxypiperazin-1-yl)pyrimido[5,4-d]pyrimidin-4-amine] | 23.1 nM | 81.2 nM | 8890 nM | 96.1 nM | ≥ 5000 nM |  |
| CON1CCN(c2ncc3ncnc(Nc4ccc(Oc5ccc6c(c5)ncn6C)c(C)c4Cl)c3n2)CC1 [Example 98, N-(2-chloro-3-methyl-4-((1-methyl-1H-benzo[d]imidazol-5-yl)oxy)phenyl)-6-(4-methoxypiperazin-1-yl)pyrimido[5,4-d]pyrimidin-4-amine] | 232 nM | 1950 nM | ≥ 10000 nM | 266 nM | ≥ 5000 nM |  |
